Results on ten compounds are retold here after patent US8569302B2, “Inhibitors of flaviviridae viruses” (Gilead Sciences, Inc., priority 2009, dated 2013).

The subject of the first assay is human hepatoma Huh-7 cell line harboring a HCV replicon. The experiment in a line: HCV replicon assay (inhibition of viral replication, luciferase readout). In kind it is cell-based. The settings on record: Hepatitis C virus, 72 h, Huh-7 HCV replicon cells, 3 days incubation. In outline: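 Read-outs: luciferase luminescence for replication inhibition, corrected by ITMN-191 (100% inhibition) wells, and calcein AM fluorescence for cytotoxicity. Cells were treated for 3 days at 37 °C with ten 3-fold compound dilutions in 0.44% final DMSO. Percent inhibition relative to DMSO was fitted with a Hill equation to give EC50 and CC50.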
A general note: Replicon systems follow genome replication, usually without infectious particles.
A word on the inhibition: it is the change of the read-out against control, counted positive when it falls. `CC(C)(C)C#Cc1cc(N(C(=O)[C@H]2CC[C@H](C)CC2)[C@H]2CC[C@H](Oc3cccc(C#N)n3)CC2)c(C(=O)O)s1` [Compound 13, 3-[[trans-4-(6-Cyano-pyridin-2-yloxy)-cyclohexyl]-(trans-4-methyl-cyclohexanecarbonyl)-amino]-5-(3,3-dimethyl-but-1-ynyl)-thiophene-2-carboxylic acid] gave an inhibition at 2 µM of 99.3%.
Still for that read-out and setting: the result for `CN(C)c1ncc(S(=O)(=O)N2CCC(N(c3cc(C#CC(C)(C)C)sc3C(=O)O)C(=O)[C@H]3CC[C@H](C)CC3)CC2)cn1` [Compound 204, 3-[[1-(2-Dimethylamino-pyrimidine-5-sulfonyl)-piperidin-4-yl]-(4-methyl-cyclohexanecarbonyl)-amino]-5-(3,3-dimethyl-but-1-ynyl)-thiophene-2-carboxylic acid] reads 99.1%; that for `CC(C)(C)C#Cc1cc(N(C(=O)[C@H]2CC[C@H](C)CC2)C2CCN(S(=O)(=O)c3cccnc3)CC2)c(C(=O)O)s1` [Compound 210, 5-(3,3-Dimethyl-but-1-ynyl)-3-{(4-methyl-cyclohexanecarbonyl)-[1-(pyridine-3-sulfonyl)-piperidin-4-yl]-amino}-thiophene-2-carboxylic acid], 100%; that for `CC(C)(C)C#Cc1cc(N(C(=O)[C@H]2CC[C@H](C)CC2)[C@H]2CC[C@H](O[C@H]3CCN(C(=O)OC(C)(C)C)C3)CC2)c(C(=O)O)s1` [Compound 225], 98.4%.
`CC(C)(C)C#Cc1cc(N(C(=O)[C@H]2CC[C@H](C)CC2)[C@H]2CC[C@H](O[C@H]3COC[C@@H]3O)CC2)c(C(=O)O)s1` [Compound 318, 5-(3,3-Dimethyl-but-1-ynyl)-3-[[4-(4-trans-hydroxy-tetrahydro-furan-3-yloxy)-cyclohexyl]-(4-methyl-cyclohexanecarbonyl)-amino]-thiophene-2-carboxylic acid] gave an inhibition at 2 µM of 99.7%.
Still for that read-out and setting: the figure for `CC(C)(C)C#Cc1cc(N(C(=O)[C@H]2CC[C@H](C)CC2)[C@H]2CC[C@H](S(=O)(=O)C3CCOCC3)CC2)c(C(=O)O)s1` [Compound 109, 5-(3,3-Dimethylbut-1-ynyl)-3-(4-methyl-N-(4-(tetrahydro-2H-pyran-4-ylsulfonyl)cyclohexyl)cyclohexanecarboxamido)thiophene-2-carboxylic acid] is 99.9%; for `CC(C)(C)C#Cc1cc(N(C(=O)[C@H]2CC[C@H](C)CC2)[C@H]2CC[C@H](O[C@H]3CCOC3)CC2)c(C(=O)O)s1` [Compound 331, 5-(3,3-Dimethyl-but-1-ynyl)-3-{(trans-4-methyl-cyclohexanecarbonyl)-[4-(tetrahydro-furan-3(S)-yloxy)-trans-cyclohexyl]-amino}-thiophene-2-carboxylic acid] it is 100%.
On the same count and under the same terms, the figure for `CC(C)(C)C#Cc1cc(N(C(=O)[C@H]2CC[C@H](C)CC2)[C@H]2CC[C@@H](OC3CCOCC3)CC2)c(C(=O)O)s1` [Compound 219, 5-(3,3-dimethylbut-1-ynyl)-3-((1r,4R)-4-methyl-N-((1r,4R)-4-(tetrahydro-2H-pyran-4-yloxy)cyclohexyl)cyclohexanecarboxamido)thiophene-2-carboxylic acid] is 100%; for `CN(C)Cc1csc(OC2CCC(N(c3cc(C#CC(C)(C)C)sc3C(=O)O)C(=O)[C@H]3CC[C@H](C)CC3)CC2)n1` (stereo partly shown) [Compound 156, 3-(N-(4-(4-((Dimethylamino)methyl)thiazol-2-yloxy)cyclohexyl)-4-methylcyclohexanecarboxamido)-5-(3,3-dimethylbut-1-ynyl)thiophene-2-carboxylic acid] it is 100%.

Still in this assay, the particulars now being: Huh-7 HCV replicon cells, 3 days incubation.
The % inhibition is how much of the control response was suppressed. Take `CC(C)(C)C#Cc1cc(N(C(=O)[C@H]2CC[C@H](C)CC2)[C@H]2C[C@@H](Oc3ccc[n+]([O-])c3)C2)c(C(=O)O)s1` [Compound 145, 5-(3,3-Dimethyl-but-1-ynyl)-3-{(trans-4-methyl-cyclohexanecarbonyl)-[cis-3-(pyridin-3-yloxy-N-oxide)-cyclobutyl]-amino}-thiophene-2-carboxylic acid]: the “% inhibition at 2μM” value is reported as 99.5%.
